Legend:
[1] = Reversal fold, ratio of vincristine IC50 to vincristine IC50 in presence of test compound for reversal of drug resistance in human Eca-109/VCR cells at 5 uM incubated for 48 hrs by CCK-8 assay; type: functional
[2] = tested on: Eca-109/VCR; assay: Cytotoxicity against human Eca-109/VCR cells assessed as reduction in cell viability at 5.0 uM incubated for 48 hrs by CCK-8 assay relative to control; type: functional

Structure (SMILES) | Ratio IC50 [1] | Cell viability (% of control) [2] [%]
COc1cc2c(cc1OC)C(Cc1ccc(OC)c(OS(=O)(=O)c3ccc(C(F)(F)F)cc3)c1)N(C)CC2 (configuration not stated) | 371.9 | 100.5
COc1cc2c(cc1OC)C(Cc1ccc(OCc3ccc(Cl)cc3Cl)c(OC)c1)N(C)CC2 (configuration not stated) | 307.6 | 92.4
COc1cc2c(cc1OC)C(Cc1ccc(OCc3ccccc3)c(OC)c1)N(C)CC2 (configuration not stated) | 80.3 | 101.4
COc1cc2c(cc1OC)C(Cc1ccc(OC)c(OCC3CC3)c1)N(C)CC2 (configuration not stated) | 6.3 | 105.6
COc1cc2c(cc1OC)C(Cc1ccc(OCCc3ccccc3)c(OC)c1)N(C)CC2 (configuration not stated) | 1.8 | 104.2
COc1cc2c(cc1OC)C(Cc1ccc(OCC3CCC3)c(OC)c1)N(C)CC2 (configuration not stated) | 188.7 | 107.9
COc1cc2c(cc1OC)C(Cc1ccc(OC)c(OCc3ccc(Cl)cc3Cl)c1)N(C)CC2 (configuration not stated) | 412.3 | 55.4
COc1cc2c(cc1OC)C(Cc1ccc(OC)c(OS(=O)(=O)c3ccc([N+](=O)[O-])cc3)c1)N(C)CC2 (configuration not stated) | 141.5 | 101.5
COc1cc2c(cc1OC)C(Cc1ccc(OC)c(OS(=O)(=O)Cc3ccccc3)c1)N(C)CC2 (configuration not stated) | 180 | 101.5
COc1cc2c(cc1OC)C(Cc1ccc(OC)c(OCC(=O)OC(C)(C)C)c1)N(C)CC2 (configuration not stated) | 3.6 | 104.3
COc1cc2c(cc1OC)C(Cc1ccc(OC)c(OCCc3ccccc3)c1)N(C)CC2 (configuration not stated) | 12.3 | 102.4
COc1cc2c(cc1OC)C(Cc1ccc(OCc3ccc(Br)cc3)c(OC)c1)N(C)CC2 (configuration not stated) | 201.2 | 91.1
CCCCCCCCOc1ccc(CC2c3cc(OC)c(OC)cc3CCN2C)cc1OC (configuration not stated) | 82.6 | 94.7
COc1cc2c(cc1OC)C(Cc1ccc(OS(=O)(=O)c3ccccc3F)c(OC)c1)N(C)CC2 (configuration not stated) | 274.3 | 98.2
COc1cc2c(cc1OC)C(Cc1ccc(OCC3CC3)c(OC)c1)N(C)CC2 (configuration not stated) | 1.5 | 104.2
C=CCCCCOc1ccc(CC2c3cc(OC)c(OC)cc3CCN2C)cc1OC (configuration not stated) | 1.9 | 103.4
COC(=O)c1sccc1S(=O)(=O)Oc1ccc(CC2c3cc(OC)c(OC)cc3CCN2C)cc1OC (configuration not stated) | 182.2 | 101.9
CCCCCCCCOc1cc(CC2c3cc(OC)c(OC)cc3CCN2C)ccc1OC (configuration not stated) | 159 | 95.3
COc1cc2c(cc1OC)C(Cc1ccc(OS(=O)(=O)c3ccc4ccccc4c3)c(OC)c1)N(C)CC2 (configuration not stated) | 362.1 | 84.7
COc1cc2c(cc1OC)C(Cc1ccc(OS(=O)(=O)c3ccc([N+](=O)[O-])cc3)c(OC)c1)N(C)CC2 (configuration not stated) | 172.2 | 105.6
CCOCCOCCOc1ccc(CC2c3cc(OC)c(OC)cc3CCN2C)cc1OC (configuration not stated) | 8.5 | 103.6

Structure (SMILES) | Ratio IC50 [1] | Cell viability (% of control) [2] [%]
COc1cc2c(cc1OC)C(Cc1ccc(OC)c(OCC3CCC3)c1)N(C)CC2 (configuration not stated) | 122.6 | 102.7
COc1cc2c(cc1OC)C(Cc1ccc(OC)c(OC(=O)C3CCCCC3)c1)N(C)CC2 (configuration not stated) | 4.5 | 103.6
COc1cc2c(cc1OC)C(Cc1ccc(OC)c(OS(=O)(=O)c3ccccc3)c1)N(C)CC2 (configuration not stated) | 24 | 102.6
COc1cc2c(cc1OC)C(Cc1ccc(OC)c(OCCCc3ccccc3)c1)N(C)CC2 (configuration not stated) | 124.1 | 96.9
COc1cc2c(cc1OC)C(Cc1ccc(OS(=O)(=O)Cc3ccccc3)c(OC)c1)N(C)CC2 (configuration not stated) | 171.6 | 102.6
COC(=O)c1sccc1S(=O)(=O)Oc1cc(CC2c3cc(OC)c(OC)cc3CCN2C)ccc1OC (configuration not stated) | 12.3 | 100.7
COc1cc2c(cc1OC)C(Cc1ccc(OC)c(OS(=O)(=O)c3ccc(C#N)cc3)c1)N(C)CC2 (configuration not stated) | 235.4 | 96
COc1cc2c(cc1OC)C(Cc1ccc(OC)c(OC(=O)c3ccc4ccccc4c3)c1)N(C)CC2 (configuration not stated) | 107.9 | 101.1
COc1cc2c(cc1OC)C(Cc1ccc(OCC3CCCCC3)c(OC)c1)N(C)CC2 (configuration not stated) | 280 | 87.7
CCOCCOCCOc1cc(CC2c3cc(OC)c(OC)cc3CCN2C)ccc1OC (configuration not stated) | 2.2 | 103.1
COc1cc2c(cc1OC)C(Cc1ccc(OC)c(OS(=O)(=O)c3ccccc3[N+](=O)[O-])c1)N(C)CC2 (configuration not stated) | 253.3 | 102
COc1cc2c(cc1OC)C(Cc1ccc(OC)c(Oc3ccc([N+](=O)[O-])cc3)c1)N(C)CC2 (configuration not stated) | 53.2 | 100.4
COc1cc2c(cc1OC)C(Cc1ccc(OC)c(OS(=O)(=O)c3ccccc3F)c1)N(C)CC2 (configuration not stated) | 16.5 | 98.9
C=CCCCCOc1cc(CC2c3cc(OC)c(OC)cc3CCN2C)ccc1OC (configuration not stated) | 15.2 | 98.2
COc1cc2c(cc1OC)C(Cc1ccc(OCCCc3ccccc3)c(OC)c1)N(C)CC2 (configuration not stated) | 162.4 | 103.3
COc1cc2c(cc1OC)C(Cc1ccc(OCCC(C)C)c(OC)c1)N(C)CC2 (configuration not stated) | 227.1 | 105.5
COc1cc2c(cc1OC)C(Cc1ccc(OC)c(OCc3ccc(Br)cc3)c1)N(C)CC2 (configuration not stated) | 158 | 97.8
COc1cc2c(cc1OC)C(Cc1ccc(OS(=O)(=O)c3ccc(C#N)cc3)c(OC)c1)N(C)CC2 (configuration not stated) | 168.5 | 99.9
COc1cc2c(cc1OC)C(Cc1ccc(OC)c(OS(=O)(=O)c3ccc4ccccc4c3)c1)N(C)CC2 (configuration not stated) | 340.5 | 94.7
COc1cc2c(cc1OC)C(Cc1ccc(OS(=O)(=O)c3ccc(C(F)(F)F)cc3)c(OC)c1)N(C)CC2 (configuration not stated) | 307.4 | 90.4
